Assay results taken from patent publication US12319648B2, “Fluorinated phenylacetic acid derivatives in a weed control method” (SYNGENTA CROP PROTECTION AG, priority 2019, dated 2025).

Key:
Assay type in all cases: in vivo
Solanum nigrum (SOLNI) [1] = test: Pre-emergence herbicidal glasshouse test; conditions: pre-emergence, 250 g/ha, 13 days after application
Method: (§1) Seeds of a variety of test species are shown in standard soil in pots Amaranthus retoflexus (AMARE), Ipomoea hederacea (IPOHE), Solanum nigrum (SOLNI), Lolium perenne (LOLPE). Echinochloa crus-galli (ECHCG), Setaria faberi (SETFA)). After cultivation for one day (pre-emergence) or after 8 days cultivation (post-emergence) under controlled conditions in a glasshouse (at 24/16° C., day/night; 14 hours light; 65% humidity), the plants are sprayed with an aqueous spray solution derived from the formulation of the technical active ingredient in acetone/water (50:50) solution containing 0.5% Tween 20 (polyoxyethylene sorbitan monolaurate, CAS RN 9005-64-5). Compounds are applied at 250 g/ha unless otherwise stated. The test plants are then grown in a glasshouse under controlled conditions in a glasshouse (at 24/16° C., day/night; 14 hours light; 65% humidity) and watered twice daily. After 13 days for pre and post-emergence, the test is evaluated for the percentage damage caused to the plant. The biological activities are shown in the following table on a five-point scale (5=81-100%; 4=61-80%; 3=41-60%; 2=21-40%; 1=0-20%).
(§2) Using the experimental conditions outlined above, a further test is conducted to compare the herbicidal properties of the difluro containing compound (1.014) with a representative compound (C1) referred to in GB901553. The compounds are applied at 1000 g/ha and 500 g/ha. The test is evaluated for the percentage damage caused to the plant (% phytotoxicity).

[2] = test system: Echinochloa crus-galli (ECHCG); test: Pre-emergence herbicidal glasshouse test; conditions: pre-emergence, 250 g/ha, 13 days after application
Method: as §1, §2

Setaria faberi (SETFA) [3] = test: Pre-emergence herbicidal glasshouse test; conditions: pre-emergence, 250 g/ha, 13 days after application
Method: as §1, §2

[4] = test system: Ipomoea hederacea (IPOHE); test: Pre-emergence herbicidal glasshouse test; conditions: pre-emergence, 250 g/ha, 13 days after application
Method: as §1, §2

[5] = test system: Amaranthus retoflexus (AMARE); test: Pre-emergence herbicidal glasshouse test; conditions: pre-emergence, 250 g/ha, 13 days after application
Method: as §1, §2

Lolium perenne (LOLPE) [6] = test: Pre-emergence herbicidal glasshouse test; conditions: pre-emergence, 250 g/ha, 13 days after application
Method: as §1, §2

Solanum nigrum (SOLNI) [7] = test: Post-emergence herbicidal glasshouse test; conditions: post-emergence, 250 g/ha, 13 days after application
Method: as §1, §2

[8] = test system: Echinochloa crus-galli (ECHCG); test: Post-emergence herbicidal glasshouse test; conditions: post-emergence, 250 g/ha, 13 days after application
Method: as §1, §2

Setaria faberi (SETFA) [9] = test: Post-emergence herbicidal glasshouse test; conditions: post-emergence, 250 g/ha, 13 days after application
Method: as §1, §2

[10] = test system: Ipomoea hederacea (IPOHE); test: Post-emergence herbicidal glasshouse test; conditions: post-emergence, 250 g/ha, 13 days after application
Method: as §1, §2

[11] = test system: Amaranthus retoflexus (AMARE); test: Post-emergence herbicidal glasshouse test; conditions: post-emergence, 250 g/ha, 13 days after application
Method: as §1, §2

Lolium perenne (LOLPE) [12] = test: Post-emergence herbicidal glasshouse test; conditions: post-emergence, 250 g/ha, 13 days after application
Method: as §1, §2

With `O=C(O)C(F)(F)c1cccc(F)c1Cl` [Compound 1.036] the “percentage damage caused to the plant, five-point scale, SOLNI” value (“percentage damage caused … SOLNI” below) (Solanum nigrum (SOLNI) [1]) was 4 (4=61-80%), the “percentage damage caused to the plant, five-point scale, ECHCG” value (shortened to “percentage damage caused … ECHCG”) [2] was 1 (1=0-20%) and the “percentage damage caused to the plant, five-point scale, SETFA” value (“percentage damage caused … SETFA” for short) (Setaria faberi (SETFA) [3]) was 1 (1=0-20%). For the same compound, the “percentage damage caused to the plant, five-point scale, IPOHE” value (“percentage damage caused … IPOHE” below) [4] was 4 (4=61-80%), the “percentage damage caused to the plant, five-point scale, AMARE” value (shortened to “percentage damage caused … AMARE”) [5] was 4 (4=61-80%) and the “percentage damage caused to the plant, five-point scale, LOLPE” value (“percentage damage caused … LOLPE” for short) (Lolium perenne (LOLPE) [6]) was 1 (1=0-20%). The “percentage damage caused … SOLNI” value (Solanum nigrum (SOLNI) [7]) was 4 (4=61-80%), the “percentage damage caused … ECHCG” value [8] was 1 (1=0-20%) and the “percentage damage caused … SETFA” value (Setaria faberi (SETFA) [9]) was 1 (1=0-20%). For the same compound, the “percentage damage caused … IPOHE” value [10] was 4 (4=61-80%), the “percentage damage caused … AMARE” value [11] was 4 (4=61-80%) and the “percentage damage caused … LOLPE” value (Lolium perenne (LOLPE) [12]) was 1 (1=0-20%).
`O=C(O)C(F)(F)c1cccc(F)c1Br` [Compound 1.032] was tested, and the “percentage damage caused … SOLNI” value (Solanum nigrum (SOLNI) [1]) was 4 (4=61-80%), the “percentage damage caused … ECHCG” value [2] was 1 (1=0-20%) and the “percentage damage caused … SETFA” value (Setaria faberi (SETFA) [3]) was 1 (1=0-20%). The “percentage damage caused … IPOHE” value [4] was 4 (4=61-80%), the “percentage damage caused … AMARE” value [5] was 4 (4=61-80%) and the “percentage damage caused … LOLPE” value (Lolium perenne (LOLPE) [6]) was 1 (1=0-20%). For the same compound, the “percentage damage caused … SOLNI” value (Solanum nigrum (SOLNI) [7]) was 4 (4=61-80%), the “percentage damage caused … ECHCG” value [8] was 1 (1=0-20%) and the “percentage damage caused … SETFA” value (Setaria faberi (SETFA) [9]) was 1 (1=0-20%). For the same compound, the “percentage damage caused … IPOHE” value [10] was 4 (4=61-80%), the “percentage damage caused … AMARE” value [11] was 4 (4=61-80%) and the “percentage damage caused … LOLPE” value (Lolium perenne (LOLPE) [12]) was 1 (1=0-20%).
With `O=C(O)C(F)(F)c1cccc(F)c1F` [Compound 1.031] the “percentage damage caused … SOLNI” value (Solanum nigrum (SOLNI) [1]) was 1 (1=0-20%), the “percentage damage caused … ECHCG” value [2] was 1 (1=0-20%) and the “percentage damage caused … SETFA” value (Setaria faberi (SETFA) [3]) was 1 (1=0-20%). The “percentage damage caused … IPOHE” value [4] was 3 (3=41-60%), the “percentage damage caused … AMARE” value [5] was 1 (1=0-20%) and the “percentage damage caused … LOLPE” value (Lolium perenne (LOLPE) [6]) was 1 (1=0-20%). For the same compound, the “percentage damage caused … SOLNI” value (Solanum nigrum (SOLNI) [7]) was 3 (3=41-60%), the “percentage damage caused … ECHCG” value [8] was 1 (1=0-20%) and the “percentage damage caused … SETFA” value (Setaria faberi (SETFA) [9]) was 1 (1=0-20%). The “percentage damage caused … IPOHE” value [10] was 3 (3=41-60%), the “percentage damage caused … AMARE” value [11] was 3 (3=41-60%) and the “percentage damage caused … LOLPE” value (Lolium perenne (LOLPE) [12]) was 1 (1=0-20%).
`O=C(O)C(F)(F)c1c(Cl)ccc(Cl)c1Cl` [Compound 1.001] was tested, and the “percentage damage caused … SOLNI” value (Solanum nigrum (SOLNI) [1]) was 1 (1=0-20%), the “percentage damage caused … ECHCG” value [2] was 1 (1=0-20%) and the “percentage damage caused … SETFA” value (Setaria faberi (SETFA) [3]) was 1 (1=0-20%). For the same compound, the “percentage damage caused … IPOHE” value [4] was 3 (3=41-60%), the “percentage damage caused … AMARE” value [5] was 5 (5=81-100%) and the “percentage damage caused … LOLPE” value (Lolium perenne (LOLPE) [6]) was 1 (1=0-20%). The “percentage damage caused … SOLNI” value (Solanum nigrum (SOLNI) [7]) was 4 (4=61-80%), the “percentage damage caused … ECHCG” value [8] was 1 (1=0-20%) and the “percentage damage caused … SETFA” value (Setaria faberi (SETFA) [9]) was 3 (3=41-60%). For the same compound, the “percentage damage caused … IPOHE” value [10] was 4 (4=61-80%), the “percentage damage caused … AMARE” value [11] was 5 (5=81-100%) and the “percentage damage caused … LOLPE” value (Lolium perenne (LOLPE) [12]) was 1 (1=0-20%).
`O=C(O)C(F)(F)c1cccc(Cl)c1F` [Compound 1.029] was tested, and the “percentage damage caused … SOLNI” value (Solanum nigrum (SOLNI) [1]) was 5 (5=81-100%), the “percentage damage caused … ECHCG” value [2] was 1 (1=0-20%) and the “percentage damage caused … SETFA” value (Setaria faberi (SETFA) [3]) was 2 (2=21-40%). For the same compound, the “percentage damage caused … IPOHE” value [4] was 3 (3=41-60%), the “percentage damage caused … AMARE” value [5] was 5 (5=81-100%) and the “percentage damage caused … LOLPE” value (Lolium perenne (LOLPE) [6]) was 2 (2=21-40%). For the same compound, the “percentage damage caused … SOLNI” value (Solanum nigrum (SOLNI) [7]) was 4 (4=61-80%), the “percentage damage caused … ECHCG” value [8] was 2 (2=21-40%) and the “percentage damage caused … SETFA” value (Setaria faberi (SETFA) [9]) was 3 (3=41-60%). The “percentage damage caused … IPOHE” value [10] was 3 (3=41-60%), the “percentage damage caused … AMARE” value [11] was 5 (5=81-100%) and the “percentage damage caused … LOLPE” value (Lolium perenne (LOLPE) [12]) was 1 (1=0-20%).
